The text below walks through data of ChEMBL document CHEMBL3580621, “The Hippo Pathway and YAP/TAZ-TEAD Protein-Protein Interaction as Targets for Regenerative Medicine and Cancer Treatment” (J Med Chem, 2015).

Some results are limits rather than exact numbers.

The species entered for this test is Homo sapiens. Briefly: Inhibition of HA-tagged YAP/Gal4-tagged TEAD (unknown origin) interaction at 2.5 uM by Coimmunoprecipitation assay.

Turning to VERTEPORFIN, the inhibition (usually how much of the control response was suppressed) was greater than 50%.
